This note sets out measurements from patent US20220081435A1, “ANDROGEN RECEPTOR PROTEIN DEGRADERS” (THE REGENTS OF THE UNIVERSITY OF MICHIGAN, priority 2019, published 2022).

This assay concerns the target T1, AR protein (Homo sapiens, UniProt P10275, T878A).
T1 construct: The percent AR protein degradation induced by these compounds at various concentrations in LNCaP cells; host or cells: LNCaP
T1 sequence (P10275 1-920 T878A): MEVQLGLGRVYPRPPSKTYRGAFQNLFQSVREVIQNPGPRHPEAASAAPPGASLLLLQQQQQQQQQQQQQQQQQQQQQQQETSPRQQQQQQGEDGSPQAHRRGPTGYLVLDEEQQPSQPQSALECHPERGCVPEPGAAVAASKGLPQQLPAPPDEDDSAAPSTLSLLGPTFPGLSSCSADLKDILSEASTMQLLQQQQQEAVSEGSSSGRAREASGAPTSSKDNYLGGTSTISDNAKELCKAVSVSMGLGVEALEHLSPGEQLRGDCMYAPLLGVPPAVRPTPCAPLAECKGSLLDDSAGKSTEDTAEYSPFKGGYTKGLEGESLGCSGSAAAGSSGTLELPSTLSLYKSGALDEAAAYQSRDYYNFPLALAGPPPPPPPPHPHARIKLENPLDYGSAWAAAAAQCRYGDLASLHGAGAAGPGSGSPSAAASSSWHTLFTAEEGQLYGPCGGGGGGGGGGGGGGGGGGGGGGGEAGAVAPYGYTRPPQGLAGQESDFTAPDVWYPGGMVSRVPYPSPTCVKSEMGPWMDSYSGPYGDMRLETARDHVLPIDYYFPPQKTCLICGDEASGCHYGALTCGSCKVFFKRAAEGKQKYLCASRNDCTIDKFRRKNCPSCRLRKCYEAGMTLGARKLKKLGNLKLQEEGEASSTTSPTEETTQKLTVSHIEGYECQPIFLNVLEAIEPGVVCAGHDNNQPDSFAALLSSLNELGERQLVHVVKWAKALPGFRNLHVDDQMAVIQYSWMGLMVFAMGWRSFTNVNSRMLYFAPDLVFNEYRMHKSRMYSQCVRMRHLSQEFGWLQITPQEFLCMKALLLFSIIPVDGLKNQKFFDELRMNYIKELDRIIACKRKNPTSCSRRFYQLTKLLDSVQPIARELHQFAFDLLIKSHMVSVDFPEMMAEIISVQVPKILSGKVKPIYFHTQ
Description: AR protein degradation in LNCaP cells (Western blotting). Particulars: for Dmax at 0.01 µM / Dmax at 0.1 µM / Dmax at 1 µM / AR degradation (Western blotting, dose-dependent) / Dmax at 10 µM: LNCaP; for Dmax at 0.1 µM / Dmax at 1 µM / Dmax at 10 µM: read-out: % AR protein degradation in LNCaP Cells. It is filed as cell-based. Here is the method:
Cell lines and Cell Culture: All the LNCaP, VCaP and 22RV1 cells used were purchased from American Type Culture Collection (ATCC). […] All of the cells were supplemented with 10% fetal bovine serum (Invitrogen) at 37° C. in a humidified 5% CO2 incubator.
Western Blotting. Treated cells were lysed by RIPA buffer supplemented with protease and phosphatase inhibitors. […] Software ImageJ was used to quantify the percentage of AR degradation. The net protein bands and loading controls are calculated by deducting the background from the inverted band value. The final relative quantification values are the ratio of net band to net loading control.

Setting [1] is: 0.01 μM, treatment time 6 h, average of three independent experiments.
Where [2] appears, read: 0.1 μM, treatment time 6 h, average of three independent experiments.
[3] abbreviates: 1 μM, treatment time 6 h, average of three independent experiments.
Where [4] appears, read: 10 μM, treatment time 6 h, average of three independent experiments.

Read-outs that look alike come from different tables or passages of the source.

Consider `Cc1cc([C@H](C(=O)N2C[C@H](O)C[C@H]2C(=O)N[C@@H](CC(=O)N2CCC(N3CCC(C#Cc4ccc(N5C(=S)N(c6cnc(C#N)c(C(F)(F)F)c6)C(=O)C56CCC6)cc4)CC3)CC2)c2ccc(-c3scnc3C)cc2)C(C)C)on1` [Compound 30, (2S,4R)—N—((S)-3-(4-((4-(7-(6-Cyano-5-(trifluoromethyl)pyridin-3-yl)-8-oxo-6-thioxo-5,7-diazaspiro[3.4]octan-5-yl)phenyl)ethynyl)-[1,4′-bipiperidin]-1′-yl)-1-(4-(4-methylthiazol-5-yl)phenyl)-3-oxopropyl)-4-hydroxy-1-((R)-3-methyl-2-(3-methylisoxazol-5-yl)butanoyl)pyrrolidine-2-carboxamide], for which the Dmax at 0.01 µM under setting [1] came to 38%. In addition, the Dmax at 0.1 µM under setting [2] worked out at 80%. Also, under setting [3], the Dmax at 1 µM came out at 95%.
Consider `Cc1ncsc1-c1ccc([C@H](C)NC(=O)C2C[C@@H](O)CN2C(=O)[C@@H](NC(=O)N2CCN(c3ccc(C#Cc4ccc(N5C(=S)N(c6ccc(C#N)c(C(F)(F)F)c6)C(=O)C5(C)C)cc4)cn3)CC2)C(C)(C)C)cc1` (stereo partly drawn) [Compound 25, 4-(5-((4-(3-(4-Cyano-3-(trifluoromethyl)phenyl)-5,5-dimethyl-4-oxo-2-thioxoimid-azolidin-1-yl)phenyl)ethynyl)pyridin-2-yl)-N-((2S)-1-((4R)-4-hydroxy-2-(((S)-1-(4-(4-methylthiazol-5-yl)phenyl)ethyl)carbamoyl)pyrrolidin-1-yl)-3,3-dimethyl-1-oxobutan-2-yl)piperazine-1-carboxamide], for which the “% AR protein degradation in LNCaP Cells” value is, setting by setting: under setting [2], 0%; under setting [3], 12%; under setting [4], 0%.
Under setting [1], `Cc1ncsc1-c1ccc([C@H](C)NC(=O)C2C[C@@H](O)CN2C(=O)[C@@H](NC(=O)CCCN2CCN(c3ccc(C#Cc4ccc(N5C(=S)N(c6ccc(C#N)c(C(F)(F)F)c6)C(=O)C5(C)C)cc4)cn3)CC2)C(C)(C)C)cc1` (stereo partly drawn) [Compound 21, (4R)-1-((S)-2-(4-(4-(5-((4-(3-(4-Cyano-3-(trifluoromethyl)phenyl)-5,5-dimethyl-4-oxo-2-thioxoimidazolidin-1-yl)phenyl)ethynyl)pyridin-2-yl)piperazin-1-yl)butanamido)-3,3-dimethylbutanoyl)-4-hydroxy-N—((S)-1-(4-(4-methylthiazol-5-yl)phenyl)ethyl)pyrrolidine-2-carboxamide] displayed a Dmax at 0.01 µM of 37%. For the same molecule, the Dmax at 0.1 µM under setting [2] amounted to 61%. The Dmax at 1 µM under setting [3] is 92%.
Under setting [1], `Cc1cc([C@H](C(=O)N2C[C@H](O)C[C@H]2C(=O)N[C@@H](CC(=O)N2CCC(N3CCC(C#Cc4ccc(N5C(=S)N(c6ccc(C#N)c(C(F)(F)F)c6)C(=O)C5(C)C)cc4)CC3)CC2)c2ccc(-c3scnc3C)cc2)C(C)C)on1` [Compound 29, (2S,4R)—N—((S)-3-(4-((4-(3-(4-Cyano-3-(trifluoromethyl)phenyl)-5,5-dimethyl-4-oxo-2-thioxoimidazolidin-1-yl)phenyl)ethynyl)-[1,4′-bipiperidin]-1′-yl)-1-(4-(4-methylthiazol-5-yl)phenyl)-3-oxopropyl)-4-hydroxy-1-((R)-3-methyl-2-(3-methylisoxazol-5-yl)butanoyl)pyrrolidine-2-carboxamide] came in with a Dmax at 0.01 µM of 20%. Under setting [2], the Dmax at 0.1 µM came out at 81%. Further, under setting [3], the Dmax at 1 µM stood at 97%.
For the molecule `Cc1ncsc1-c1ccc([C@H](CC(=O)N2CCC(N3CCC(C#Cc4ccc(C(=O)N[C@H]5C(C)(C)[C@H](Oc6ccc(C#N)c(Cl)c6)C5(C)C)cc4)CC3)CC2)NC(=O)[C@@H]2C[C@@H](O)CN2C(=O)[C@@H](NC(=O)C2(C#N)CC2)C(C)(C)C)cc1` [Compound 35, (2S,4R)—N—((S)-3-(4-((4-(((1r,3r)-3-(3-Chloro-4-cyanophenoxy)-2,2,4,4-tetramethyl-cyclobutyl)carbamoyl)phenyl)ethynyl)-[1,4′-bipiperidin]-1′-yl)-1-(4-(4-methylthiazol-5-yl)phenyl)-3-oxopropyl)-1-((S)-2-(1-cyanocyclopropane-1-carboxamido)-3,3-dimethylbutanoyl)-4-hydroxypyrrolidine-2-carboxamide], the “% AR protein degradation in LNCaP Cells” value was 76% under setting [1], 99% under setting [2] and 100% under setting [3]. The “AR degradation (Western blotting, dose-dependent)” value reads like this: (at 10 nM) “partial AR degradation”; (at both 100 nM and 1 μM) “essentially complete AR degradation”.
On to `Cc1ncsc1-c1ccc([C@H](C)NC(=O)C2C[C@@H](O)CN2C(=O)[C@@H](NC(=O)CN2CCN(c3ccc(C#Cc4ccc(N5C(=S)N(c6ccc(C#N)c(C(F)(F)F)c6)C(=O)C5(C)C)cc4)cn3)CC2)C(C)(C)C)cc1` (stereo partly drawn) [Compound 24, (4R)-1-((S)-2-(2-(4-(5-((4-(3-(4-Cyano-3-(trifluoromethyl)phenyl)-5,5-dimethyl-4-oxo-2-thioxoimidazolidin-1-yl)phenyl)ethynyl)pyridin-2-yl)piperazin-1-yl)acetamido)-3,3-dimethylbutanoyl)-4-hydroxy-N—((S)-1-(4-(4-methylthiazol-5-yl)phenyl)ethyl)pyrrolidine-2-carboxamide], for which the Dmax at 0.1 µM under setting [2] was determined as 3%. Moreover, the Dmax at 1 µM under setting [3] came to 31%. The Dmax at 10 µM under setting [4] worked out at 28%.
For the molecule `Cc1cc([C@H](C(=O)N2C[C@H](O)C[C@H]2C(=O)N[C@@H](CC(=O)N2CCC(N3CCC(C#Cc4ccc(Cc5c(C)nn(-c6ccc(C#N)c(Cl)c6)c5C)cc4)CC3)CC2)c2ccc(-c3scnc3C)cc2)C(C)C)on1` [Compound 33, (2S,4R)—N—((S)-3-(4-((4-((1-(3-Chloro-4-cyanophenyl)-3,5-dimethyl-1H-pyrazol-4-yl)methyl)phenyl)ethynyl)-[1,4′-bipiperidin]-1′-yl)-1-(4-(4-methylthiazol-5-yl)phenyl)-3-oxopropyl)-4-hydroxy-1-((R)-3-methyl-2-(3-methylisoxazol-5-yl)butanoyl)pyrrolidine-2-carboxamide], under “6 h”, the Dmax at 0.1 µM was found to be 65%, the Dmax at 1 µM turned out to be 93% and the Dmax at 10 µM was 78%.
Turning to `Cc1ncsc1-c1ccc(CNC(=O)C2C[C@@H](O)CN2C(=O)[C@@H](NC(=O)CCCCCCNC(=O)c2ccc(N3C(=S)N(c4ccc(C#N)c(C(F)(F)F)c4)C(=O)C3(C)C)cc2F)C(C)(C)C)cc1` (stereo partly drawn) [Compound 12, (4R)-1-((S)-2-(7-(4-(3-(4-Cyano-3-(trifluoromethyl)phenyl)-5,5-dimethyl-4-oxo-2-thioxoimidazolidin-1-yl)-2-fluorobenzamido)heptanamido)-3,3-dimethylbutanoyl)-4-hydroxy-N-(4-(4-methylthiazol-5-yl)benzyl)pyrrolidine-2-carboxamide], under setting [2], the Dmax at 0.1 µM is 54%. Further, the Dmax at 1 µM under setting [3] was determined as 84%. Further, the Dmax at 10 µM under setting [4] is 64%.
As for `Cc1cc([C@H](C(=O)N2C[C@H](O)C[C@H]2C(=O)N[C@@H](CC(=O)N2CCN(c3ccc(C#Cc4ccc(C(=O)N[C@H]5C(C)(C)[C@H](Oc6ccc(C#N)c(Cl)c6)C5(C)C)cc4)cn3)CC2)c2ccc(-c3scnc3C)cc2)C(C)C)on1` [Compound 28, (2S,4R)—N—((S)-3-(4-(5-((4-(((1r,3r)-3-(3-Chloro-4-cyanophenoxy)-2,2,4,4-tetramethylcyclobutyl)carbamoyl)phenyl)ethynyl)pyridin-2-yl)piperazin-1-yl)-1-(4-(4-methylthiazol-5-yl)phenyl)-3-oxopropyl)-4-hydroxy-1-((R)-3-methyl-2-(3-methylisoxazol-5-yl)butanoyl)pyrrolidine-2-carboxamide], the “% AR protein degradation in LNCaP Cells” value was determined as 22% under setting [1], 72% under setting [2] and 93% under setting [3].
